pIC50: −log10 of the molar value.
Columns and labels:
A375-luc cells = assay: Cell viability (MTS) and Chou-Talalay drug combination analysis in A375-luc cells; format: cell-based; details: single agent, free or in NP, 2 days drug exposure
Procedure: Cells were seeded in 96-well plates for 24 h at a density of 2×10^3 cells/well. Cell masses that were viable after 2 days of drug exposure were determined by MTS assay. A CellTiter 96 AQueous One Solution Cell Proliferation Assay (Promega, Madison, Wis.) kit containing the tetrazolium compound MTS was used to assay cell viability according to the manufacturer's protocols.
Drug combination analysis was performed by using the method described by Chou and Talalay.
We evaluated the degree of synergy between RAPA and CDDP in terms of cytotoxicity toward A375-luc cells in culture. […] The cytotoxicity of combined CDDP and RAPA was enhanced by NP delivery over free drug combination.

[1] = Serum biochemical value analysis, hematology and organ H&E; format: in vivo, mice; details: for blood cell counts (RBC, PLT, WBC, HCT, HGB) vs untreated control: healthy nude mice, three dosages; for ALT / AST / BUN / Creatinine: serum after three injections, n = 5
Procedure: After three injections, blood was collected and centrifuged at 4000 rpm for 5 min to obtain the serum. Blood urea nitrogen (BUN), creatinine, serum aspartate aminotransferase (AST) and alanine aminotransferase (ALT) levels, were assayed as indicators of renal and hepatic function. Whole blood was collected from healthy nude mice after three repeated treatments. Red blood cells (RBC), white blood cells (WBC), platelets (PLT), hemoglobin (HGB) and hematocrits (HCT) were counted for the detection of myelosuppression. Organs (heart, liver, spleen, lung, and kidney) were fixed and sectioned for H&E staining as to evaluate the organ-specific toxicity.

[2] = Drug loading and encapsulation efficiency of cores and PLGA NPs; format: physicochemical; details: DOPA coated cores encapsulated separately, DL up to approximately 5 wt %; n=5
Procedure: The loading and encapsulation efficiency of Rapamycin was measured using High-performance Liquid Chromatography (HPLC, Waters, λ=277 nm); the loading and encapsulation efficiency of CDDP was measured using Inductively Coupled Plasma-Mass Spectroscopy (ICP-MS, NexION™ 300, Perkin Elmer Inc); the loading efficiency of GMP was measured both by Ultraviolet-visible spectrometer (UV, DU®800, Beckman Coulter) and ^3H labeled CMP incorporation using a Liquid Scintillation Analyzer (TRI-CARB 2900 TR, Packard Bioscience Co). The size distribution of particle was determined using a Malvern ZetaSizer Nano series (Westborough, Mass.). TEM images of NPs were acquired using a JEOL 100CX II TEM (JEOL, Japan). The NPs were negatively stained with 2% uranyl acetate. Approximately 100 NPs were analyzed for calculating the average number of CDDP cores per PLGA NP.
DL and EE of cisplatin were measured using Inductively Coupled Plasma-Mass Spectroscopy (ICP-MS, NexION™ 300, Perkin Elmer Inc); LE and EE of GMP were both measured by Ultraviolet-Visible Spectroscopy (UV, DU®800, Beckman Coulter) and ^3H labeled cytidine 5′ monophosphate (CMP) [5-^3H] disodium salt (Moravek Bio Inc, 1 mCi/mL) incorporation using a Liquid Scintillation Analyzer (TRI-CARB 2900 TR, Packard Bioscience Co). The size distribution of particles was determined using a Malvern ZetaSizer Nano series (Westborough, Mass.). […]

UMUC3 cells = assay: MTT cell viability and combination index on UMUC3 cells; format: cell-based, human; details: 48 h treatment
Procedure: MTT (3-[4,5-dimethylthiazol-2-yl]-2,5-diphenyltetrazolium bromide) assay was conducted to detect in vitro viability of free GMP, cisplatin and their combinations as well as PLGA GMP NP, PLGA cisplatin NP and PLGA Combo NP. In Brief, cells were seeded in 96-well plates with a density of 3,000 cells per well 24 h prior to drug treatment. On the second day, cells were treated with free drugs or the drug combination at a series of dilutions with various molar ratios. Forty-eight h post treatment, 20 μL of MTT (5 mg/mL) reagent was added for another 4 h at 37° C. The medium was then discarded and the formed formazan salt was dissolved in 150 μL of DMSO. The absorbance in each well was read at the wavelength of 570 nm using a multidetection microplate reader (Plate […]). Each concentration was tested in five wells and data presented as mean±SD. […] Combination Index (CI) Analysis of free drug combination based on the Chou and Talalay method (T. C. Chou, P. Talalay, Adv. Enzyme Regul. 1984, 22, 27) was conducted using CompuSyn software. Briefly, for each level of Fa, the CI values of cisplatin and GMP combinations were calculated according to the following equation: […] CI values of the drug combinations were drawn as a function of Fa. […] (Y. Han, Z. He, […]. Bronich, R. Jordan, […], Mol. Pharm. 2012, 9, 2302).

[3] = system: stroma-rich UMUC3 bladder cancer xenograft; assay: Anti-tumor efficacy in stroma-rich UMUC3 bladder cancer xenografts (TUNEL, PCNA, Pt-DNA adduct, western blot); format: in vivo, mice; details: tumor lysates after three doses

Row | pIC50 (A375-luc cells) | pIC50 (A375-luc cells; 48 h) | Compound | blood cell counts (RBC, PLT, WBC, HCT, HGB) vs untreated control [1] | ALT [1] [U/L] | AST [1] [U/L] | BUN [1] [mg/dL] | Creatinine [1] [mg/dL] | EE into PLGA NP [2] [%] | pIC50 (UMUC3 cells) | expression of ERCC1 and XPA (western blot) [3]
1 | 5.00 | – | [NH2][Pt]([NH2])([Cl])[Cl] [CDDP, cisplatin] | significantly reduced | 59 ± 1 | 216 ± 15 | 25 ± 1 | 0.2 | 74.0±10.1 | – | –
2 | – | 4.80 | CO[C@H]1C[C@@H]2CC[C@@H](C)[C@@](O)(O2)C(=O)C(=O)N2CCCC[C@H]2C(=O)O[C@H]([C@H](C)C[C@@H]2CC[C@@H](O)[C@H](OC)C2)CC(=O)[C@H](C)/C=C(\C)[C@@H](O)[C@@H](OC)C(=O)[C@H](C)C[C@H](C)/C=C/C=C/C=C/1C [RAPA, rapamycin] | – | – | – | – | – | – | – | –
3 | – | – | Gemcitabine monophosphate [GMP] | significantly reduced | 47 ± 3 | 122 ± 20 | 24 ± 2 | 0.2 | 70.6±2.5 | 4.46 | down-regulation
